Assay [1] deals with Glycogen synthase kinase-3 (Sus scrofa) (UniProt B2LUN4+I6LNT8). In words: Inhibition of porcine brain GSKalpha/beta using GS-1 as substrate at 10 uM after 30 mins in presence of [gamma33P] ATP by scintillation counting.
In assay [2] the target is Dual specificity tyrosine-phosphorylation-regulated kinase 1A (Rattus norvegicus) (UniProt Q63470). Put plainly: Inhibition of GST-fused rat recombinant DYRK1A expressed in Escherichia coli using myelin basic protein as substrate at 10 uM after 30 mins in presence of [gamma33P] ATP by scintillation counting.
The target of assay [3] is Dual specificity protein kinase CLK1 (Homo sapiens) (UniProt P49759). Put plainly: Inhibition of GST-fused human recombinant CLK1 expressed in Escherichia coli using GRSRSRSRSRSR peptide as substrate at 10 uM.
Chain of Dual specificity protein kinase CLK1 (Homo sapiens) (P49759 whole entry, looked up, the tested form may be a part): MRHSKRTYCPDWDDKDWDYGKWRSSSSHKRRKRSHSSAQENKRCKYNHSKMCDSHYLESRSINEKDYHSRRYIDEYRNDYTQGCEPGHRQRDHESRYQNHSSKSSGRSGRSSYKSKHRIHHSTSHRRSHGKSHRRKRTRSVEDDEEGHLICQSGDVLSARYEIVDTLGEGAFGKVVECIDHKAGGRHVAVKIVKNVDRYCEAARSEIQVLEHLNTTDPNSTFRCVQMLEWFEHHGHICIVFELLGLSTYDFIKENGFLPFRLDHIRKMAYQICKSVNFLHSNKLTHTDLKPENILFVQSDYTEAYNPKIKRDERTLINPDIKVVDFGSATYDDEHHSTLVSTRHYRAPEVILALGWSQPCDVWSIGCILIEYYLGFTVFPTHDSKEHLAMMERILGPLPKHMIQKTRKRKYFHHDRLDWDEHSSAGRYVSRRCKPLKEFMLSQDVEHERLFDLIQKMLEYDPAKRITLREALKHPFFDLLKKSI
For assay [4], the target named is Cyclin-dependent kinase 5/CDK5 activator 1 (Homo sapiens) (UniProt Q00535+Q15078). In words: Inhibition of human recombinant CDK5/p25 using histone1 as substrate at 10 uM after 30 mins in presence of [gamma33P] ATP by scintillation counting. The assay is classed as protein-complex assay.
Chain of Cyclin-dependent kinase 5/CDK5 activator 1 (Homo sapiens) (Q00535 whole entry): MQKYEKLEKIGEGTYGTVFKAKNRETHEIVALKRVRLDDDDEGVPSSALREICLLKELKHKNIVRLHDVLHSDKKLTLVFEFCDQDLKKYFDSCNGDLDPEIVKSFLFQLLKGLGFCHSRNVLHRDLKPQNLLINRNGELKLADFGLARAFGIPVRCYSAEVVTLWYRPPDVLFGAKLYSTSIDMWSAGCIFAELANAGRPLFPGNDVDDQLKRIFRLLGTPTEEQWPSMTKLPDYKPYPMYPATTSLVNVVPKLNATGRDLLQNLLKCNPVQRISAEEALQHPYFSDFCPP
Chain of Cyclin-dependent kinase 5/CDK5 activator 1 (Homo sapiens) (Q15078 99-307 partner limits assumed): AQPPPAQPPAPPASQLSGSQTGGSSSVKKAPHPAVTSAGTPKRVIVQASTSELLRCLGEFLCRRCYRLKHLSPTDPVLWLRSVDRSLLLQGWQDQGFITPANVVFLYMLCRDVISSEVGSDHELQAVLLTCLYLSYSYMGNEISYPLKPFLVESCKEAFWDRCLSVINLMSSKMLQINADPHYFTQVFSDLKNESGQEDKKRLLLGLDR
The species entered for assay [5] is Sus scrofa. In words: Inhibition of porcine brain CK1delta/epsilon using RRKHAAIGpSAYSITA as substrate at 10 uM after 30 mins in presence of [gamma33P] ATP by scintillation counting.

Take `CCc1c2cnccc2c([N+](=O)[O-])c2nc(N)ncc12`: the inhibition in assay [1] was found to be 98%; in assay [2] it was 80%; in assay [3], 31%; in assay [4] it was 96%; in assay [5], 87%.

Take `CCc1c2cnccc2c(N)c2nc(N)ncc12`: the inhibition is 79% in assay [1]; 65% in assay [2]; 31% in assay [3]; 61% in assay [4]; 84% in assay [5].

As for `Cc1c2cnccc2c(N)c2nc(N)ncc12`, the inhibition was determined as 43% in assay [1]; 90% in assay [2]; 30% in assay [3]; 54% in assay [4]; 70% in assay [5].

As for `Nc1ncc2c(Cc3ccccc3)c3cnccc3c(N)c2n1`, the inhibition in assay [1] was found to be 12%; in assay [2], 49%; in assay [3], 29%; in assay [4], 4%; in assay [5], 76%.

With `Nc1ncc2cc3cnccc3c(N)c2n1`, the inhibition in assay [1] was determined as 54%; in assay [2], 99%; in assay [3], 100%; in assay [4], 70%; in assay [5], 76%.

As for `Nc1ncc2c(Br)c3cnccc3c([N+](=O)[O-])c2n1`, the inhibition in assay [1] was 41%; in assay [2], 76%; in assay [3], 28%; in assay [4], 0%; in assay [5] it was 34%.

`CCCCc1c2cnccc2c(N)c2nc(N)ncc12`: the inhibition is 34% in assay [1]; 52% in assay [2]; 31% in assay [3]; 0% in assay [4]; 42% in assay [5].

For the compound `Nc1ncc2cc3cnccc3c([N+](=O)[O-])c2n1`, the inhibition in assay [1] turned out to be 75%; in assay [2] it was 95%; in assay [3], 98%; in assay [4], 44%; in assay [5] it was 91%.

Regarding `CCCCc1c2cnccc2c([N+](=O)[O-])c2nc(N)ncc12`, the inhibition was found to be 100% in assay [1]; 86% in assay [2]; 31% in assay [3]; 91% in assay [4]; 57% in assay [5].

On to `Nc1ncc2c(-c3ccccc3)c3cnccc3c(N)c2n1`, for which the inhibition in assay [1] is 25%; in assay [2], 49%; in assay [3], 32%; in assay [4], 33%; in assay [5], 55%.

Regarding `Nc1ncc2c(Cc3ccccc3)c3cnccc3c([N+](=O)[O-])c2n1`, the inhibition in assay [1] turned out to be 14%; in assay [2], 40%; in assay [3] it was 37%; in assay [4] it was 2%; in assay [5], 64%.

Turning to `Cc1c2cnccc2c([N+](=O)[O-])c2nc(N)ncc12`, the inhibition in assay [1] came to 78%; in assay [2] it was 82%; in assay [3] it was 30%; in assay [4] it was 88%; in assay [5], 83%.

As for `Nc1ncc2c(-c3ccccc3)c3cnccc3c([N+](=O)[O-])c2n1`, the inhibition in assay [1] amounted to 74%; in assay [2] it was 53%; in assay [3] it was 30%; in assay [4] it was 25%; in assay [5], 49%.

Broadly, the inhibition is the percentage by which the read-out fell short of the control.

The values are drawn from ChEMBL document CHEMBL4425175, “Synthesis and preliminary in vitro kinase inhibition evaluation of new diversely substituted pyrido[3,4-g]quinazoline derivatives” (Bioorg Med Chem Lett, 2016).
